Test results: US9689841B2, “Fluorescent pI markers for isoelectric focusing separations and fluorescent labeling” (The Texas A&M University System, priority 2011, dated 2017)
Like-named read-outs stand apart in the source and are kept apart here.

Legend:
[1] = from the two pKa values
Excerpt: An ampholytic compound dissolved in an aqueous buffer can be present in the solution either as a cationic, isoelectric or anionic species, depending on the pH of the solution. In the presence of a nonalternating electric field, the cationic or anionic species migrate electrophoretically toward the cathode or the anode, respectively. At a certain solution pH where the ampholyte becomes isoelectric, the net electrophoretic migration of its band becomes zero. The numeric value of this solution pH is equal to the pI value (isoelectric point) of the ampholyte. The pI value of an ampholyte is a material characteristic that is determined by the structure of the ampholyte (the types and pKa values of its weak and strong electrolyte functional groups). When the ampholyte contains a single acidic group (characterized by pKa^acid) and a single basic group (characterized by pKa^conjugate acid for this conjugate acid form), the pI value of the ampholyte can be calculated as pI=(pKa^acid+pKa^conjugate acid)/2. When an ampholyte contains two acidic groups (characterized by pKa^acid1 and pKa^acid2) and one basic group (characterized by pKa^conjugate acid for its conjugate acid form) with pKa^acid1<pKa^acid2<<pKa^conjugate acid, the pI of the ampholyte lies between pKa^acid1 and pKa^acid2 and is calculated as pI=(pKa^acid1 pKa^acid2)/2. In such cases, the acidic groups between which the pI lies are called the buffering groups, while the basic group is called the titrating group or charge balancing group. Similarly, when an ampholyte contains two basic groups (characterized by pKa^conjugate acid1 and pKa^conjugate acid2 for their conjugate acid forms) and one acidic group (characterized by pKa^acid) with pKa^acid<<pKa^conjugate acid1<pKa^conjugate acid2, the pI of the ampholyte lies between pKa^conjugate acid1 and pKa^conjugate acid2 and is calculated as pI=(pKa^conjugate acid1, pKa^conjugate acid2)/2. In such cases, the two basic groups between which the pI lies are called the buffering groups, while the acidic group is called the titrating group or charge balancing group. When the ampholyte contains multiple buffering groups and multiple titrating or charge balancing groups with relatively close pKa values, the charge contribution of each species needs to be evaluated in order to calculate the pI value.

[2] = physchem
[3] = cited from earlier work
[4] = first (lower) of the two pKa values
[5] = second (higher) of the two pKa values

Row | Compound | pI [1] | pKa [2] | pKa [3, 4] | pKa [3, 5]
1 | O=C(O)c1ccccn1 [pyridine-2-carboxylic acid] | 3.105 | 2.1 |  | 
2 | O=C(O)c1ccc(C(=O)O)cc1 [1,4-benzenedicarboxylic acid] |  |  | 3.60 | 4.50
3 | O=C(O)c1ccncc1 [pyridine-4-carboxylic acid] | 3.34 | 1.54 | 1.8 | 4.88
4 | O=C(O)c1ccccc1C(=O)O [1,2-benzenedicarboxylic acid] |  |  | 2.76 | 4.92
5 | O=C(O)c1cccnc1 [pyridine-3-carboxylic acid] | 3.365 | 1.3 |  | 
